Measured values taken from patent US20200330444A1, “[…] FOR TREATING PAIN AND RELATED DISEASES AND CONDITIONS, AND COMPOSITIONS AND METHODS THEREOF” (NeuForm Pharmaceuticals, Inc., priority 2016, published 2020).

Experiments:
[1] = In vitro metabolic stability in human liver microsome suspensions; assay type: in vitro ADME
Procedure: (§1) The stability time course samples were prepared and extracted immediately by protein precipitation method using acetonitrile containing 575 ng/mL carbutamide, 100 ng/mL loxapine and 10 ng/mL longdaysin as the internal standard (IS). The samples were analyzed on a Waters Acquity UPLC system coupled with a mass dspectrometer. The peak area ratios of respective extracted ion chromatograms were used for relative comparison.
(§2) 300 μL of the above 2.0 μM combo solutions were added into 1.5 mL of Eppendof tubes. The samples were put in 37° C. incubator for 10 minutes. Then 300 of 37° C. pre-warmed 0.35 mg/mL of human liver microsome (or 37.5 pmol/mL CYP3A4, or 25 pmol/mL CYP2D6) and 2.6 mM NADPH in 100 mM potassium phosphate buffer pH 7.4 (contains 3.3 mM MgCl2) was added to initiate the enzyme activity. 50.0 μL of the reaction mixture was put into 150 μL of acetonitrile with 100 ng/mL loxapine, 10 ng/ml longdaysin (IS) to stop the reaction at 0′, 15′, 30′, 60′, 2 hours, 3 hours and 4 hours. The samples were vortexed and centrifuged at 13,000 g for approximately 5 min, then supernatants were taken and stored in −20° C. freezer. After the last samples were taken and they were placed in −20° C. at least 1 hour. All samples were put into a refrigerator at approximate 4° C. for 30 min. The samples were vortexed. […]

CYP2D6 = CYP2D6 (Homo sapiens, UniProt P10635); assay: In vitro metabolic stability on incubation with CYP2D6; assay type: in vitro ADME
CYP2D6, sequence (P10635 whole entry): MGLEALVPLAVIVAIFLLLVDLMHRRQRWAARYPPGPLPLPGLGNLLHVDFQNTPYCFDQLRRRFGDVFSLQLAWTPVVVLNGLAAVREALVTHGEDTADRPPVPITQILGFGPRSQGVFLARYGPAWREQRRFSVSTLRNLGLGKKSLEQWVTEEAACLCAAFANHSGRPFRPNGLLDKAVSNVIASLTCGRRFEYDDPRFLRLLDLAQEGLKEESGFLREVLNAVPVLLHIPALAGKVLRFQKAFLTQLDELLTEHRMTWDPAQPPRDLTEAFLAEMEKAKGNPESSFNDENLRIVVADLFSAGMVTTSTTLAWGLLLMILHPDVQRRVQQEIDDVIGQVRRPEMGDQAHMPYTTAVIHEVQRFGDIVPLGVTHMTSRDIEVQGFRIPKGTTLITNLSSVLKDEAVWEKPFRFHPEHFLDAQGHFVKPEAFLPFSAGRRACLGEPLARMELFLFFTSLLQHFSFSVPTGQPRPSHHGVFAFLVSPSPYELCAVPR
Procedure: as §1, §2

| Compound | Concentration after incubation higher than that of the non-deuterated compound ([1]; human liver microsome, 60 min) [%] | Half-life increased by, vs oliceridine ([1]; incubation with human liver microsome) [%] | Half-life increased by, vs oliceridine (CYP2D6) [%] |
| --- | --- | --- | --- |
| [2H]C([2H])(C[C@@]1(c2ccccn2)CCOC2(CC([2H])([2H])C([2H])([2H])C2)C1)NCc1sccc1OC [D6-Oliceridine-a] | 32 | 29 | 200 |
| [2H]C([2H])(C[C@@]1(c2ccccn2)CC([2H])([2H])OC2(CC([2H])([2H])C([2H])([2H])C2)C1)NCc1sccc1OC [D8-oliceridine] | – | – | 200 |
